Structures can show the parent of a compound that is named as a salt.
Test system: normal mice (male C57BL/6N)
Assay: Effects on glucose tolerance in normal mice (in vivo experiment)
Conditions: 1 mg/kg oral, 30 min before oral glucose 2 g/kg; blood glucose AUC0-120; 0.5% MC group = 100%, NVP DPP728 (10 mg/kg) group = 0%; lower = better
Description: Animals: Male C57BL/6N mice (purchased from Japan Charles River) The test compounds were suspended in a 0.5% methylcellulose (MC) solution at the doses indicated below in Table 2. These test compounds and the NVP DPP728 (U.S. Pat. No. 6,011,155) suspension, or the 0.5% MC solution (the solvent control group), were administered orally at a dose of 10 mL/kg. 30 minutes later, a glucose solution was orally administered at a dose of 10 mL/kg. Glucose was orally administered at a dose of 2 g/kg. The tail vain of unanesthetized mice was cut with a razor blade to cause a small amount of bleeding immediately before administering the test substances or NVP DPP728, and immediately before, as well as 30, 60, and 120 minutes after, administration of the glucose solution. 10 μL of blood was collected, and this was mixed immediately with 0.6 M perchloric acid (140 μL). Glucose present in the supernatant obtained by centrifugation (1500 g, 10 minutes, 4° C., refrigerated centrifuge GS-6KR, Beckman) was measured using Glucose CII Test Wako (Wako Pure Chemicals). Results: In each of the groups to which 0.5% MC solution, NVP DPP728, and the test compounds were administered, the area under the curve of blood glucose vs. time was calculated over 0 to 120 minutes from the time of glucose administration (AUC0-120). Defining the AUC0-120 for the 0.5% MC solution-administered group as 100%, and the AUC0-120 for the NVP DPP728 (10 mg/kg)-administered group as 0%, the degree of improvement in glucose tolerance due to the test compound was calculated by the following equation: Degree of improvement in glucose tolerance (%)=(AUC0-120 of the test compound−AUC0-120 of the NVP DPP728 (10 mg/kg)-administered group)/(AUC0-120 of the 0.5% MC solution-administered group−AUC0-120 of the NVP DPP728 (10 mg/kg)-administered group)×100 The lower the % value, the better the degree of improvement in glucose tolerance.

Point of comparison: `CC#CCn1c(=O)n(C)c2nc(OC)nc(N3CCNCC3)c21.O=C(O)C(F)(F)F` [Example 1, 7-(2-Butynyl)-2-methoxy-9-methyl-6-(piperazin-1-yl)-7,9-dihydropurin-8-one trifluoroacetic acid salt], “Degree of improvement in glucose tolerance (%)” value 19.8%. Against it:
- CC#CCn1c(=O)n(C)c2nc(OC(C)C)nc(N3CCNCC3)c21.O=C(O)C(F)(F)F [Example 7, 7-(2-Butynyl)-2-isopropoxy-9-methyl-6-(piperazin-1-yl)-7,9-dihydropurin-8-one trifluoroacetic acid salt] — the same, 19.8%

Molecular target: T1, DPP-IV obtained from pig kidney (Sus scrofa, UniProt P22411)
T1 construct: DPP-IV obtained from pig kidney; from tissue; host or cells: pig kidney
Assay: Measurement of DPPIV-inhibiting activity (in vitro experiment)
Type: biochemical
Conditions: DPP-IV from pig kidney 10 mU/mL, substrate Gly-Pro-p-nitroanilide 0.33 mM, 20 min preincubation, 20 min reaction, absorbance 405 nm
Description: DPP-IV obtained from pig kidney was dissolved in a reaction buffer (50 mM Tris-HCl pH7.4, 0.1% BSA) at 10 mU/mL, and 110 μL of this was used. 15 μL of the drug obtained from the aforementioned Examples was added, and this was incubated at room temperature for 20 minutes, and then 25 μL of a 2 mM solution of Gly-Pro-p-nitroanilide (final concentration 0.33 mM) was added to start the enzymatic reaction. The reaction time was 20 minutes, and 1 N phosphoric acid solution (25 μL) was added to stop the reaction.

T1 sequence (P22411 whole entry): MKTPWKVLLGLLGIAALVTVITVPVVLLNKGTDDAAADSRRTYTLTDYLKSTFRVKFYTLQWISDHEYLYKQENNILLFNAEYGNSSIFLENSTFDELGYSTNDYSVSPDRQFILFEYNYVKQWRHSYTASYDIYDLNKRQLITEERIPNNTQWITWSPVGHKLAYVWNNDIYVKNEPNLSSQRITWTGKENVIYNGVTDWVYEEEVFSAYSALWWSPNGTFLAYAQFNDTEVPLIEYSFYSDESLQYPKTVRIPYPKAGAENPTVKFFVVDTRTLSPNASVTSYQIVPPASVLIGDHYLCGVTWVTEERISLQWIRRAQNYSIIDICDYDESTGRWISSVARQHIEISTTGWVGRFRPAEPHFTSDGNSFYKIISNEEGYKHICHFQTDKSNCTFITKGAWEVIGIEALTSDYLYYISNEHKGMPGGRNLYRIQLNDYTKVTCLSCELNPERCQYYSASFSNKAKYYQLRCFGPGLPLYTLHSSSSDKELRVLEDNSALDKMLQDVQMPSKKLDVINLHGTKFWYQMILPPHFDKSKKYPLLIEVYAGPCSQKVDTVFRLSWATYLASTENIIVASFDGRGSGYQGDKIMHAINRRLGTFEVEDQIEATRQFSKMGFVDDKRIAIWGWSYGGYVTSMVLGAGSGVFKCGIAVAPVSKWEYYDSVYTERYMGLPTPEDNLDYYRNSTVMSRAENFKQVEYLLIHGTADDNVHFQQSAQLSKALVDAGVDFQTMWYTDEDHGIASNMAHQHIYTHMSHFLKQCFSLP

Point of comparison: `CC#CCn1c(=O)n(CCc2ccccc2)c2ncnc(N3CCNCC3)c21` [Example 74, 7-(2-Butynyl)-9-phenethyl-6-(piperazin-1-yl)-7,9-dihydropurin-8-one trifluoroacetic acid salt], IC50 14 nM. Against it:
- CC#CCn1c(=O)n(C)c2nc(OC)nc(N3CCNCC3)c21.O=C(O)C(F)(F)F [Example 1, 7-(2-Butynyl)-2-methoxy-9-methyl-6-(piperazin-1-yl)-7,9-dihydropurin-8-one trifluoroacetic acid salt] — 17-fold higher, 240 nM
- CC#CCn1c(=O)n(C)c2nc(OC(C)C)nc(N3CCNCC3)c21.O=C(O)C(F)(F)F [Example 7, 7-(2-Butynyl)-2-isopropoxy-9-methyl-6-(piperazin-1-yl)-7,9-dihydropurin-8-one trifluoroacetic acid salt] — 14-fold higher, 199 nM
- CC#CCn1c(=O)n(Cc2ccc(C#N)cc2)c2nc(OC)nc(N3CCNCC3)c21 [Example 49, 4-[7-(2-Butynyl)-2-methoxy-8-oxo-6-(piperazin-1-yl)-7,8-dihydropurin-9-ylmethyl]benzonitrile trifluoroacetic acid salt] — 2.9-fold higher, 40 nM
- CC#CCn1c(=O)n(Cc2ccccc2C#N)c2nc(OC)nc(N3CCNCC3)c21 [Example 50, 2-[7-(2-Butynyl)-2-methoxy-8-oxo-6-(piperazin-1-yl)-7,8-dihydropurin-9-ylmethyl]benzonitrile trifluoroacetic acid salt] — 3.8-fold lower, 3.65 nM
- CC#CCn1c(=O)[nH]c2nc(OC)nc(N3CCNCC3)c21 [Example 53, 7-(2-Butynyl)-2-methoxy-6-(piperazin-1-yl)-7,9-dihydropurin-8-one trifluoroacetic acid salt] — 98-fold higher, 1370 nM
- CC#CCn1c(=O)n(-c2cccnc2)c2nc(OC)nc(N3CCNCC3)c21 [Example 55, 7-(2-Butynyl)-2-methoxy-6-(piperazin-1-yl)-9-(pyridin-3-yl)-7,9-dihydropurin-8-one trifluoroacetic acid salt] — 2.7-fold higher, 37.2 nM
- CC#CCn1c(=O)n(-c2ccsc2)c2nc(OC)nc(N3CCNCC3)c21 [Example 57, 7-(2-Butynyl)-9-(thiophen-3-yl)-2-methoxy-6-(piperazin-1-yl)-7,9-dihydropurin-8-one trifluoroacetic acid salt] — 5.5-fold higher, 77.5 nM
- C=Cc1ccc(-n2c(=O)n(CC#CC)c3c(N4CCNCC4)nc(OC)nc32)cc1 [Example 58, 7-(2-Butynyl)-2-methoxy-6-(piperazin-1-yl)-9-(4-vinyl-phenyl)-7,9-dihydropurin-8-one trifluoroacetic acid salt] — within 1.5-fold, 15.6 nM
- C=CCn1c(=O)n(CC#CC)c2c(N3CCNCC3)nc(OCC)nc21 [Example 59, 9-Allyl-7-(2-butynyl)-2-ethoxy-6-(piperazin-1-yl)-7,9-dihydropurin-8-one trifluoroacetic acid salt] — 8.5-fold higher, 119 nM
- C=CCn1c(=O)n(CC#CC)c2c(N3CCNCC3)nc(Oc3ccccc3C(N)=O)nc21 [Example 60, 2-[9-Allyl-7-(2-butynyl)-8-oxo-6-(piperazin-1-yl)-8,9-dihydro-7H-purin-2-yloxy]benzamide trifluoroacetic acid salt] — 8.5-fold higher, 119 nM
- CC#CCn1c(=O)n(-c2ccccc2)c2ncnc(N3CCNCC3)c21 [Example 62, 7-(2-Butynyl)-9-phenyl-6-(piperazin-1-yl)-7,9-dihydropurin-8-one trifluoroacetic acid salt] — 9.9-fold higher, 139 nM
- CC#CCn1c(=O)n(-c2ccoc2)c2ncnc(N3CCNCC3)c21 [Example 63, 7-(2-Butynyl)-9-(furan-3-yl)-6-(piperazin-1-yl)-7,9-dihydropurin-8-one trifluoroacetic acid salt] — 10-fold higher, 146 nM
- CC#CCn1c(=O)n(-c2ccc(OC)nc2)c2ncnc(N3CCNCC3)c21 [Example 66, 7-(2-Butynyl)-9-(6-methoxy-pyridin-3-yl)-6-(piperazin-1-yl)-7,9-dihydropurin-8-one trifluoroacetic acid salt] — 4.2-fold higher, 59.3 nM
- CC#CCn1c(=O)n(-c2ccc(=O)[nH]c2)c2ncnc(N3CCNCC3)c21 [Example 67, 7-(2-Butynyl)-9-(6-oxo-16-dihydro-pyridin-3-yl)-6-(piperazin-1-yl)-7,9-dihydropurin-8-one trifluoroacetic acid salt] — 3.6-fold higher, 49.8 nM
- CC#CCn1c(=O)n(-c2ccc(=O)n(C)c2)c2ncnc(N3CCNCC3)c21 [Example 68, 7-(2-Butynyl)-9-(1-methyl-6-oxo-1,6-dihydro-pyridin-3-yl)-6-(piperazin-1-yl)-7,9-dihydropurin-8-one trifluoroacetic acid salt] — 13-fold higher, 187 nM
- C#CCn1c(=O)n(CC#CC)c2c(N3CCNCC3)ncnc21 [Example 70, 7-(2-Butynyl)-6-(piperazin-1-yl)-9-(2-propynyl)-7,9-dihydropurin-8-one trifluoroacetic acid salt] — 6.8-fold higher, 94.8 nM
- CC#CCn1c(=O)n(CC(N)=O)c2ncnc(N3CCNCC3)c21 [Example 71, 2-[7-(2-Butynyl)-8-oxo-6-(piperazin-1-yl)-7,8-dihydropurin-9-yl]acetamide trifluoroacetic acid salt] — 19-fold higher, 260 nM
- CC#CCn1c(=O)n(CC2CC2)c2ncnc(N3CCNCC3)c21 [Example 72, 7-(2-Butynyl)-9-cyclopropylmethyl-6-(piperazin-1-yl)-7,9-dihydropurin-8-one trifluoroacetic acid salt] — 10-fold higher, 141 nM
- CC#CCn1c(=O)n(Cc2ccc(C#N)cc2)c2ncnc(N3CCNCC3)c21 [Example 73, 4-[7-(2-Butynyl)-8-oxo-6-(piperazin-1-yl)-7,8-dihydropurin-9-ylmethyl]benzonitrile trifluoroacetic acid salt] — 3.5-fold higher, 48.4 nM
- CC#CCn1c(=O)[nH]c2ncnc(N3CCNCC3)c21 [Example 75, 7-(2-Butynyl)-6-(piperazin-1-yl)-7,9-dihydropurin-8-one trifluoroacetic acid salt] — 66-fold higher, 921 nM
- CC#CCn1c(=O)n(C)c2ncnc(N3CCNCC3)c21 [Example 76, 7-(2-Butynyl)-9-methyl-6-(piperazin-1-yl)-7,9-dihydropurin-8-one trifluoroacetic acid] — 76-fold higher, 1060 nM
- CC(C)=CCn1c(=O)n(C)c2ncnc(N3CCNCC3)c21 [Example 77, 9-Methyl-7-(3-methyl-2-butenyl)-6-(piperazin-1-yl)-7,9-dihydropurin-8-one trifluoroacetic acid salt] — 580-fold higher, 8130 nM
- Cn1c(=O)n(Cc2ccccc2)c2c(N3CCNCC3)ncnc21 [Example 78, 7-Benzyl-9-methyl-6-(piperazin-1-yl)-7,9-dihydropurin-8-one trifluoroacetic acid salt] — 270-fold higher, 3800 nM
- CC#CCn1c(=O)n(Cc2ccccc2C#N)c2ncnc(N3CCNCC3)c21 [Example 79, 2-[7-(2-Butynyl)-8-oxo-6-piperazin-1-yl-7,8-dihydropurin-9-ylmethyl]benzonitrile trifluoroacetic acid salt] — 3.3-fold lower, 4.2 nM
- N#Cc1ccccc1Cn1c(=O)n(Cc2ccccc2)c2c(N3CCNCC3)nccc21 [Example 80, 2-(3-Benzyl-2-oxo-4-piperazin-1-yl-2,3-dihydroimidazo[4.5-c]pyridin-1-ylmethyl)benzonitrile] — 220-fold higher, 3010 nM
- N#Cc1ccccc1Cn1c(=O)n(Cc2ccccc2)c2c(N3CCNCC3)ncc(Oc3ccccc3C(N)=O)c21 [Example 81, 2-[3-Benzyl-1-(2-cyanobenzyl)-2-oxo-4-piperazin-1-yl-2,3-dihydro-1H-imidazo[4.5-c]pyridin-7-yloxy]-benzamide trifluoroacetic acid salt] — 29-fold higher, 409 nM
- CC#CCn1c(=O)n(C)c2ccnc(N3CCNCC3)c21 [Example 82, 3-(2-Butynyl)-1-methyl-4-piperazin-1-yl-1,3-dihydroimidazo[4.5-c]pyridin-2-one] — 370-fold higher, 5230 nM
- CC#CCn1c(=O)n(C)c2c(Oc3ccccc3C(N)=O)cnc(N3CCNCC3)c21 [Example 83, 2-[3-(2-Butynyl)-1-methyl-2-oxo-4-piperazin-1-yl-2,3-dihydro-1H-imidazo[4.5-c]pyridin-7-yloxy]-benzamide trifluoroacetic acid salt] — 81-fold higher, 1130 nM
- CC#CCn1c(=S)n(C)c2ncnc(N3CCNCC3)c21 [Example 84, 7-(2-Butynyl)-9-methyl-6-(piperazin-1-yl)-7,9-dihydropurin-8-thione trifluoroacetic acid salt] — 970-fold higher, 13600 nM
